Source: patent US20100075894A1, “REDUCING ER STRESS IN THE TREATMENT OF OBESITY AND DIABETES” (HARVARD UNIVERSITY, priority 2004, published 2010)

Assays:
Fao liver cells = assay: ER stress inducers and insulin action in Fao liver cells; format: cell-based, rat
Description: (§1) (A) ER stress was induced in Fao liver cells by a 3-hour treatment with 5 μg/ml tunicamycin (Tun). Cells were subsequently stimulated with insulin (Ins). IRS-1 tyrosine and serine (Ser307) phosphorylation, Akt phosphorylation (Ser473), insulin receptor (IR) tyrosine phosphorylation, and their total protein levels were examined using either immunoprecipitation (IP) followed by immunoblotting (IB) or direct immunoblotting. (B) Quantitation of IRS-1 (tyrosine and Ser307), Akt (Ser473), and IR (tyrosine) phosphorylation under the experimental conditions described in (A) with normalization to protein levels for each molecule. (C) Inhibition of ER stress-induced (300 nM thapsigargin for 4 hours) Ser307 phosphorylation of IRS-1 by JNK-1 inhibitor, SP600125 (JNKi, 25 μM), (D) Quantitation of IRS-1 Ser307 phosphorylation under conditions described in (C). (E) Reversal of ER stress-induced inhibition of insulin-stimulated tyrosine phosphorylation (pY) of IRS-1 by a JNK inhibitor. (F) Quantitation of insulin-induced IRS-1 tyrosine phosphorylation levels described in (E). (G) JNK activity, Ser307 phosphorylation of IRS-1, and total IRS-1 levels at indicated times following tunicamycin treatment (Tun, 10 μg/ml for 1 hour) in IRE-1α^+/+ and IRE-1α^−/− fibroblasts. (H) Insulin-stimulated IRS-1 tyrosine phosphorylation and total IRS-1 levels following tunicamycin treatment (Tun, 10 μg/ml for 1 hour) in IRE-1α^+/+ and IRE-1α^−/− fibroblasts. […] All graphs show mean±SEM from at least 2 independent experiments and statistical significance from the controls is indicated by * with p<0.005.
(A) ER stress was induced in Fao cells by 1 hour treatment with 300 nM thapsigargin (Thap), and cells were subsequently stimulated with insulin (Ins). IRS-1 tyrosine phosphorylation (pY) and serine phosphorylation (pSer307), insulin receptor (IR) tyrosine phosphorylation, and total protein levels were examined using either immunoprecipitation (IP) followed by immunoblotting (IB) or direct immunoblotting. (B) Fao cells were treated with sulindac sulfide (SS: 0, 7.5, 30, and 60 μM) for 45 minutes with or without an additional hour of exposure to 300 nM thapsigargin (Thap). IRS-1 serine phosphorylation and total IRS-1 protein levels were examined as described above.
To investigate whether ER stress interferes with insulin action, we pretreated Fao liver cells with tunicamycin and thapsigargin, agents commonly used to induce ER stress. […] IRS-1 is a substrate for insulin receptor tyrosine kinase and serine phosphorylation of IRS-1, particularly mediated by JNK, reduces insulin receptor signaling (Hirosumi et al., Nature 420:333 (2002); incorporated herein by reference).
Cells: Rat Fao liver cells were cultured with RPMI 1640 (Gibco, Grand Island, N.Y.) containing 10% fetal bovine serum (FBS). […]

[1] = tested on: IRE-1α^−/− and wild type (WT) fibroblasts; assay: tunicamycin in IRE-1α+/+ and IRE-1α−/− fibroblasts; format: cell-based, mouse
Text: JNK activity was examined at indicated times following treatment with tunicamycin in IRE1a+/+ and IRE-1a−/− fibroblasts using an […] kinase assay and recombinant c-jun as substrate. JNK activity and total JNK levels (a). Phosphorylation of IRS-1 at ser307 residue in IRE1a+/+ and IRE-1a−/− fibroblasts following treatment with tunicamycin following IRS-1 immunoprecipitation (IP) and immunoblotting (IB) with an IRS-1 phosphoserine 307-specific antibody (b). Insulin (ins)-stimulated IRS-1 tyrosine phosphorylation and total IRS-1 in levels following treatment of IRE1a+/+ and IRE-1a−/− fibroblasts with tunicamycin.
as §1
In the presence of ER stress, increased phosphorylation of inositol requiring kinase-1α (IRE-1α) leads to recruitment of TNF-α receptor-associated factor 2 (TRAF2) protein and activates JNK (Urano et al., Science 287:664 (2000); incorporated herein by reference). To address whether ER stress-induced insulin resistance is dependent on intact IRE-1α, we measured JNK activation, IRS-1 serine phosphorylation, and insulin receptor signaling upon exposure of IRE-1α^−/− and wild type (WT) fibroblasts to tunicamycin. […]

[2] = Fao cells pretreated with the agent

Substance: tunicamycin
- insulin-induced Akt phosphorylation (Fao liver cells; [2]): suppressed
- serine phosphorylation of IRS-1 (Fao liver cells; [2]): significant increase
- insulin-stimulated tyrosine phosphorylation of IRS-1 (Fao liver cells; Fao liver cells pretreated with the agent): significantly decreased
- insulin-stimulated tyrosine phosphorylation of IRS-1 ([1]; IRE-1α−/− cells): no such effect was detected
- insulin-stimulated tyrosine phosphorylation of IRS-1 ([1]; WT cells): inhibited
- JNK activation ([1]; WT fibroblasts): strong activation of JNK
- phosphorylation of IRS-1 at Ser307 ([1]; WT fibroblasts): stimulated
